The record followed here is US10973920B2, “Saccharide derivative of a toxic payload and antibody conjugates thereof” (priority 2014, dated 2021).

As usually defined, the IC50 is the concentration that gives 50% inhibition. A high value points to a need for much substance.

The test system of this data set is cancer cells (SKOV-3 and HSC-2). Description: Cytotoxicity to cancer cells, PrestoBlue cell viability, 96 h. Particulars: for IC50: concentration wherein cancer cell viability falls to 50%, cell line not given. As for the experimental part:
Human ovarian cancer cell line SKOV-3 (ATCC, Manassas, Va., USA) and head-and-neck squamous cell carcinoma cell line HSC-2 (Japanese Collection of Research Bioresources, Osaka, Japan) were grown according to the suppliers' recommendations. Log phase cultures were collected and cells were seeded onto 96-well plates and incubated for 24 h. Serial dilutions of test molecules were added to cells and cultures were incubated further for 96 h. Cell viability was evaluated using PrestoBlue cell viability reagent (Life Technologies, Carlsbad, Calif., USA) according to the manufacturer's instructions. Cells were incubated for 2 h, and dye reduction was measured by absorbance at 570 nm. The compounds were assayed 1-2 times in triplicate.
The results are expressed in Table 1 as IC50 values.

Several values for one entry are separate records, joined by “and”; a condition that tells them apart may be missing. Identical values can stand only once. Where a SMILES comes first, the peptide text is derived from it. [ ]: non-standard residue; d: D form. The star is where a group is joined. X1 = C[C@@H](N*)[C@@H](O[C@@H]1O[C@H](CO)[C@H](O)[C@H](O)[C@H]1O)c1ccccc1; Dolaproine = CO[C@@H]([C@@H]1CCCN1)[C@@H](C)C(=O)O; Dil = CC[C@H](C)[C@H](NC)[C@@H](CC(=O)O)OC; X2 = C[C@@H](N*)[C@@H](O)c1ccccc1; NMeV = CN[C@H](C(=O)O)C(C)C

For the compound `CC[C@H](C)[C@@H]([C@@H](CC(=O)N1CCC[C@H]1[C@H](OC)[C@@H](C)C(=O)N[C@H](C)[C@@H](O)c1ccccc1)OC)N(C)C(=O)[C@@H](NC(=O)[C@@H](NC)C(C)C)C(C)C` [MMAE, monomethylauristatin E] (H-[NMeV]V[Dil][Dolaproine]-X2), the IC50 was ~10 nM and 10 nM.
`CC[C@H](C)[C@@H]([C@@H](CC(=O)N1CCC[C@H]1[C@H](OC)[C@@H](C)C(=O)N[C@H](C)[C@@H](O[C@@H]1O[C@H](CO)[C@H](O)[C@H](O)[C@H]1O)c1ccccc1)OC)N(C)C(=O)[C@@H](NC(=O)[C@@H](NC)C(C)C)C(C)C` [MMAG, O-β-D-galactopyranosylmonomethylauristatin E] (H-[NMeV]V[Dil][Dolaproine]-X1) displayed an IC50 greater than 100 nM. Where the note is “concentrations up to 100 nM”, the “Cytotoxicity (in words)” value was “relatively non-toxic”.
